Peptide text beside a SMILES is read from it. * marks the point of attachment. Stearoyl = CCCCCCCCCCCCCCCCCC(=O)*
Tested on: SHIV strain SF162P3
Assay: therapeutic effect in monkey infection model
Format: in vivo, Chinese rhesus monkeys
Description: Six adult Chinese rhesus monkeys (numbered A to F, half male and half female) were used in the test, and antibodies to SIV, herpesvirus B, and simian T-lymphotropic virus were determined to be negative. The SHIV strain SF162P3 was provided by the AIDS Reagent Program of NIH in the United States, and was amplified on peripheral blood mononuclear cells (PBMC) of the monkeys, and the TCID50 was determined. Monkeys were intravenously inoculated with 1,000 TCID50 of the SF162P3 virus, and changes in plasma viral load (RNA copy number/ml) in the monkeys were measured periodically. […] The plasma samples were isolated from monkey bloods collected at predetermined time points and the plasma viral load (RNA copy number/ml) was determined by quantitative real-time reverse transcription-polymerase chain reaction (qRT-PCR). The plasma RNA was extracted by a conventional method and cDNA samples were synthesized by reverse transcription reaction. […] The PCR device used was PE AB17500. The sensitivity of the assay was 100 RNA copies per milliliter of plasma sample.

With `CCCCCCCCCCCCCCCCCC(=O)NCCCC[C@H](NC(=O)[C@H](CCC(=O)O)NC(=O)[C@H](CC(C)C)NC(=O)[C@H](CCCCN)NC(=O)[C@H](CCCCN)NC(=O)[C@H](CC(C)C)NC(=O)[C@H](CCC(=O)O)NC(=O)[C@H](CCC(=O)O)NC(=O)[C@H](CCC(=O)O)NC(=O)[C@H](CC(N)=O)NC(=O)[C@H](CCCCN)NC(=O)[C@H](CCCCN)NC(=O)[C@H](CCC(N)=O)NC(=O)[C@H](CCC(N)=O)NC(=O)[C@H](CCC(=O)O)NC(=O)[C@H](CCC(=O)O)NC(=O)[C@H](C)NC(=O)[C@H](CCCCN)NC(=O)[C@H](CCCCN)NC(=O)[C@H](CC(C)C)NC(=O)[C@H](CC(C)C)NC(=O)[C@H](CCC(=O)O)NC(=O)[C@H](CCC(=O)O)NC(=O)[C@@H](NC(=O)[C@H](CCCCN)NC(=O)[C@H](CCC(N)=O)NC(=O)[C@H](CCC(=O)O)NC(=O)[C@H](Cc1c[nH]c2ccccc12)NC(C)=O)[C@@H](C)CC)C(N)=O` [LP-80] (Ac-WEQKIEELLKKAEEQQKKNEEELKKLEK(Stearoyl)-NH2) the “monkeys with viral load decreased below the detectable level line” value (2 mg/kg s.c. once a day, fourth day after the treatment, six monkeys) was “three of the six monkeys”, the rebound of virus (4th day after administration was stopped) was “did not rebound” and the rebound of virus (10th day after administration was stopped) was “one of the monkeys (monkey A)”. For the same compound, the “monkeys with viral load not detected” value (14th day after the treatment) was “all six monkeys”, the rebound of virus (17th day after administration was stopped) was “the other 5 monkeys except the monkey C” and the “rebound of viral load” value (24th day after administration was stopped) was “all monkeys”. For the same compound, the “therapeutic effect (in words)” value (SHIV SF162P3 infected rhesus monkeys) was “powerful antiviral therapeutic effect”, the “viral load during subsequent treatment” value (administration once per 4 days for 4 weeks) was “controlled below the detectable level line” and the “monkeys with viral load not detected” value (eighth day after the treatment) was “five monkeys”.

Source: patent publication US11680086B2, “Lipopeptide for potently inhibiting HIV, derivative thereof, pharmaceutical composition thereof and use thereof” (Institute of Pathogen Biology, Chinese Academy of Medical …, priority 2017, dated 2023)
